This note sets out measurements from patent US20210038559A1, “CANNABINOIDS AND DERIVATIVES FOR PROMOTING IMMUNOGENICITY OF TUMOR AND INFECTED CELLS” (priority 2018, published 2021).

One assay has as its system MHC-I expression by COLO 205 cells. The assay can be described thus: cells. Format: cell-based, human.
Details: not given
The method, then:
A panel of synthetic cannabinoids (Cayman Chemical, #9002891) was tested for MHC class I-inducing capability in COLO 205 cells as described above. COLO 205 cells were treated with the compounds at a concentration of 35 μM and evaluated for cell surface MHC class I expression after 48 hours. Cells were harvested, stained with MHC-I mAb W6/32 (Thermo Fisher). MHC-I expression was determined by flow cytometry.
As for `CCCCCn1cc(C(=O)c2cccc3ccccc23)cc1-c1ccccc1` [Example 77, 1-naphthalenyl(1-pentyl-5-phenyl-1H-pyrrol-3-yl)-methanone], the “Induction Fold” value was determined as 2.60 Fold. Take `CCCCCn1cc(C(=O)c2cccc3ccccc23)cc1-c1ccccc1F` [Example 85, [5-(2-fluorophenyl)-1-pentyl-1H-pyrrol-3-yl]-1-naphthalenyl-methanone]: the “Induction Fold” value worked out at 2.52 Fold.

Consider `CCCCCn1cc(C(=O)NC23CC4CC(CC(C4)C2)C3)c2ccccc21` [Example 108, 1-pentyl-N-tricyclo[3.3.1.1]dec-1-yl-1H-indole-3-carboxamide], for which the “Induction Fold” value turned out to be 2.38 Fold.

The same assay, now with this note: Homo sapiens, COLO 205, 48 h, MHC-I expression, COLO 205 cells, compounds at 35 μM, 48 hours, flow cytometry (W6/32); read-out: Induction Fold.
In the case of `CC(C)[C@H](NC(=O)c1nn(CC2CCCCC2)c2ccccc12)C(N)=O` [Example 67, N-[(1S)-1-(aminocarbonyl)-2-methylpropyl]-1-(cyclohexylmethyl)-1H-indazole-3-carboxamide], the fold induction at 35 µM is 2.75.

For the molecule `CN1CCCCC1Cn1cc(C(=O)C23CC4CC(CC(C4)C2)C3)c2ccccc21` (stereo not drawn) [Example 68, [1-[(1-methyl-2-piperidinyl)methyl]-1H-indol-3-yl]tricyclo[3.3.1.13,7]dec-1-yl-methanone], the fold induction at 35 µM is 2.72. For `CCCCn1cc(C(=O)c2ccc(C)c3ccccc23)c2ccccc21` [Example 69, (1-butyl-1H-indol-3-yl)(4-methylnaphthalen-1-yl)methanone], the fold induction at 35 µM stood at 2.71.

`CC(C)C(C)n1cc(C(=O)c2cccc3ccccc23)c2ccccc21` (stereo not drawn) [Example 70, (1-(3-methylbutan-2-yl)-1H-indol-3-yl)(naphthalen-1-yl)methanone]: the fold induction at 35 µM was found to be 2.7. The same measure, in the same setting: to `COc1ccccc1CC(=O)c1cn(CCC2CCCCC2)c2ccccc12` [Example 74, 1-(1-(2-cyclohexylethyl)-1H-indol-3-yl)-2-(2-methoxyphenyl)ethanone] belongs 2.65.

Take `CCCCCn1cc(C(=O)c2c(Cl)ccc3ccccc23)c2ccccc21` [Example 75, (2-chloronaphthalen-1-yl)(1-pentyl-1H-indol-3-yl)methanone]: the fold induction at 35 µM came to 2.65. Turning to `CCCCCn1nc(C(=O)NC(C(N)=O)C(C)(C)C)c2ccccc21` (stereo not drawn) [Example 76, N-[1-(aminocarbonyl)-2,2-dimethylpropyl]-1-pentyl-1H-indazole-3-carboxamide], the fold induction at 35 µM stood at 2.61. On the same count and under the same terms, the same measure for `CCCc1ccc(C(=O)c2cn(CCC)c3ccccc23)c2ccccc12` [Example 78, (1-propyl-1H-indol-3-yl)(4-propyl-1-naphthalenyl)-methanone]: 2.58; for `CCCCCn1cc(C(=O)Cc2ccccc2)c2ccccc21` [Example 80, 1-(1-pentyl-1H-indol-3-yl)-2-phenyl-ethanone]: 2.57; for `CCCCCn1cc(C(=O)c2cccc3cccc(C)c23)c2ccccc21` [Example 81, (8-methylnaphthalen-1-yl)(1-pentyl-1H-indol-3-yl)methanone]: 2.57.

Consider `CCCC(F)Cn1cc(C(=O)Oc2cccc3cccnc23)c2ccccc21` (stereo not drawn) [Example 83, quinolin-8-yl 1-(2-fluoropentyl)-1H-indole-3-carboxylate], for which the fold induction at 35 µM amounted to 2.54. Still for that read-out and setting: the same measure for `COC(=O)[C@@H](NC(=O)c1nn(CCCC(C)F)c2ccccc12)C(C)(C)C` (stereo partly drawn) [Example 84, methyl (2S)-2-(1-(4-fluoropentyl)-1H-indazole-3-carboxamido)-3,3-dimethylbutanoate]: 2.53. `CCCCCn1cc(C(=O)Cc2cccc(Cl)c2)c2ccccc21` [Example 86, 2-(3-chlorophenyl)-1-(1-pentyl-1H-indol-3-yl)-ethanone]: the fold induction at 35 µM turned out to be 2.51. Consider `CCCCCn1cc(C(=O)c2cccc3cccc(Br)c23)c2ccccc21` [Example 87, (8-bromonaphthalen-1-yl)(1-pentyl-1H-indol-3-yl)methanone], for which the fold induction at 35 µM was 2.51. Same read-out and setting: the same measure for `CCCCCn1cc(C(=O)NC(C(N)=O)C(C)(C)C)c2ccccc21` (stereo not drawn) [Example 88, N-(1-amino-3,3-dimethyl-1-oxobutan-2-yl)-1-pentyl-1H-indole-3-carboxamide]: 2.5. As for `CCCCCn1cc(C(=O)c2c(CC)ccc3ccccc23)c2ccccc21` [Example 89, (2-ethylnaphthalen-1-yl)(1-pentyl-1H-indol-3-yl)methanone], the fold induction at 35 µM was 2.5. On the same count and under the same terms, to `CCCCCn1cc(C(=O)c2c(OC)ccc3ccccc23)c2ccccc21` [Example 90, (2-methoxy-1-naphthalenyl)(1-pentyl-1H-indol-3-yl)-methanone] belongs 2.5; to `CCCCCn1cc(C(=O)NCc2ccccc2)c2ccccc21` [Example 91, 1-pentyl-N-(phenylmethyl)-1H-indole-3-carboxamide], 2.48; to `O=C(Oc1ccnc2ccccc12)c1cn(CCCCCF)c2ccccc12` [Example 92, quinolin-4-yl 1-(5-fluoropentyl)-1H-indole-3-carboxylate], 2.47.

Turning to `CCCCCn1cc(C(=O)C2C(C)(C)C2(C)C)c2ccccc21` [Example 94, (1-pentyl-1H-indol-3-yl)(2,2,3,3-tetramethylcyclopropyl)-methanone], the fold induction at 35 µM is 2.45.

Turning to `CC(C)[C@H](NC(=O)c1cn(CC2CCCCC2)c2ccccc12)C(N)=O` [Example 96, (S)-N-(1-amino-3-methyl-1-oxobutan-2-yl)-1-(cyclohexylmethyl)-1H-indole-3-carboxamide], the fold induction at 35 µM was 2.44. On to `O=C(c1cccc2ccccc12)c1nn(CCCCCBr)c2ccccc12` [Example 97, (1-(5-bromopentyl)-1H-indazol-3-yl)(naphthalen-1-yl)methanone], for which the fold induction at 35 µM stood at 2.44. The same measure, in the same setting: to `CCCCCn1cc(C(=O)Oc2cccc3cnccc23)c2ccccc21` [Example 99, isoquinolin-5-yl 1-pentyl-1H-indole-3-carboxylate] belongs 2.43; to `CCCCCn1nc(C(=O)N[C@H](C(N)=O)C(C)C)c2ccccc21` [Example 100, (S)-N-(1-amino-3-methyl-1-oxobutan-2-yl)-1-pentyl-1H-indazole-3-carboxamide], 2.43; to `CCCCCn1cc(C(=O)Cc2ccccc2C)c2ccccc21` [Example 101, 2-(2-methylphenyl)-1-(1-pentyl-1H-indol-3-yl)-ethanone], 2.42. On the same count and under the same terms, the same measure for `CC(F)CCCn1cc(C(=O)Oc2cccc3cccnc23)c2ccccc21` (stereo not drawn) [Example 102, quinolin-8-yl 1-(4-fluoropentyl)-1H-indole-3-carboxylate]: 2.41; for `CCC(C)(C)n1cc(C(=O)c2cccc3ccccc23)c2ccccc21` [Example 103, naphthalen-1-yl(1-(tert-pentyl)-1H-indol-3-yl)methanone]: 2.41; for `CCCC(F)Cn1cc(C(=O)c2cccc3ccccc23)c2ccccc21` (stereo not drawn) [Example 104, (1-(2-fluoropentyl)-1H-indol-3-yl)(naphthalen-1-yl)methanone]: 2.41. In the case of `O=C(Oc1cccc2cnccc12)c1cn(CCCCCF)c2ccccc12` [Example 105, isoquinolin-5-yl 1-(5-fluoropentyl)-1H-indole-3-carboxylate], the fold induction at 35 µM came to 2.4. On the same count and under the same terms, the same measure for `CCCCCn1cc(C(=O)Cc2ccccc2OC)c2ccccc21` [Example 106, 1-(1-pentyl-1H-indol-3-yl)-2-(2-methoxyphenyl)-ethanone]: 2.39; for `CC1(C)C(C(=O)c2cn(CCCC(F)(F)F)c3ccccc23)C1(C)C` [Example 110, (2,2,3,3-tetramethylcyclopropyl)[1-(4,4,4-trifluorobutyl)-1H-indol-3-yl]-methanone]: 2.37; for `CC1(C)C(C(=O)N/N=C2\C(=O)N(CCCCCF)c3ccccc32)C1(C)C` [Example 111, 2,2,3,3-tetramethyl-cyclopropanecarboxylic acid (2Z)-2-[1-(5-fluoropentyl)-1,2-dihydro-2-oxo-3H-indol-3-ylidene]hydrazide]: 2.37. Turning to `O=C(c1ccc(F)c2ccccc12)c1cn(CCCCCF)c2ccccc12` [Example 112, (4-fluoro-1-naphthalenyl)[1-(5-fluoropentyl)-1H-indol-3-yl]-methanone], the fold induction at 35 µM worked out at 2.37. Same read-out and setting: the same measure for `CC(Cl)CCCn1cc(C(=O)C2C(C)(C)C2(C)C)c2ccccc21` (stereo not drawn) [Example 113, (1-(4-chloropentyl)-1H-indol-3-yl)(2,2,3,3-tetramethylcyclopropyl)methanone]: 2.36.

Still in this assay, the particulars now being: MHC-I expression, COLO 205 cells, compounds at 35 μM, 48 hours, flow cytometry (W6/32).
For the molecule `CCCCCn1cc(C(=O)c2cccc3ccccc23)c2ccccc21` [Example 71, (1-pentyl-1H-indol-3-yl)-1-naphthalenyl-methanone], the “Induction Fold” value is 2.69 Fold. Same read-out and setting: to `O=C(c1cccc2ccccc12)c1cn(CCCCCF)c2ccccc12` [Example 79, [1-(5-fluoropentyl)-1H-indol-3-yl]-1-naphthalenyl-methanone] belongs 2.57 Fold.

On to `CN1CCCCC(n2cc(C(=O)C34CC5CC(CC(C5)C3)C4)c3ccccc32)C1` (stereo not drawn) [Example 93, (3,5,7)-adamantan-1-yl(1-(1-methylazepan-3-yl)-1H-indol-3-yl)methanone], for which the “Induction Fold” value worked out at 2.46 Fold. In the case of `COCCn1c(C)c(C)sc1=NC(=O)C1C(C)(C)C1(C)C` [Example 95, [N(Z)]-N-[3-(2-methoxyethyl)-4,5-dimethyl-2(3H)-thiazolylidene]-2,2,3,3-tetramethyl-cyclopropanecarboxamide], the “Induction Fold” value worked out at 2.44 Fold. With `CCCCCn1c(C)c(C(=O)c2cccc3ccccc23)c2ccccc21` [Example 98, (2-methyl-1-pentyl-1H-indol-3-yl)-1-naphthalenyl-methanone], the “Induction Fold” value is recorded as 2.43 Fold.
